The source of these data is patent US6849635B2, “Sulfonamides” (SmithKline Beecham Corporation, priority 2001, dated 2005).

Data set [1] addresses T1, cloned human and rat GPR-14 (UniProt Q9UKP6).
T1 sequence (Q9UKP6 1-389): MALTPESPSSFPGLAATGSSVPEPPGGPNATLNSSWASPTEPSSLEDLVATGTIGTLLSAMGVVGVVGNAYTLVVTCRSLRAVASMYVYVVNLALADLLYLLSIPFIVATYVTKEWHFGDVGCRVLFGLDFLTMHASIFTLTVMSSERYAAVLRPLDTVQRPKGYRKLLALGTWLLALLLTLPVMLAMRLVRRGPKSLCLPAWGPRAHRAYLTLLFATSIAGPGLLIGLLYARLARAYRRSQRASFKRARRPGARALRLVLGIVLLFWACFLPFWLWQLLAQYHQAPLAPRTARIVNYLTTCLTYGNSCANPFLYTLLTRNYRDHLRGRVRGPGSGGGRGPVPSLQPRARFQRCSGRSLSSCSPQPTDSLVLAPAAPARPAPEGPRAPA
The data set is described as follows: Radioligand binding, [125I] h-U-II on HEK-293 cell membranes. To be noted: HEK-293 cell membranes with stable cloned GPR-14, 200 pM [125I] h-U-II; species of receptor not given. The procedure:
HEK-293 cell membranes containing stable cloned human and rat GPR-14 (20 ug/assay) were incubated with 200 pM [125I] h-U-II (200 Ci/mmol^−1 in the presence of increasing concentrations of test compounds in DMSO (0.1 nM to 10 uM), in a final incubation volume of 200 ul (20 mM Tris-HCl, 5 mM MgCl2). Incubation was done for 30 minutes at room temperature followed by filtration GF/B filters with Brandel cell harvester. ^125I labeled U-II binding was quantitated by gamma counting. Nonspecific binding was defined by ^125I U-II binding in the presence of 100 nM of unlabeled human U-II. Analysis of the data was performed by nonlinear least square fitting.

Turning to `CN(C)CCOc1cc(NS(=O)(=O)c2ccc(Oc3cccc(Cl)c3C#N)cc2)ccc1Cl` [Example 1, 4-(3-Chloro-2-cyano-phenoxy)N-[4-chloro-3-(2-dimethylamino-ethoxy)-phenyl]-benzenesulfonamide], the melting point was 103 to 106 °C (dec.).

For `CCN(CC)CCOc1cc(NS(=O)(=O)c2cc(Cl)c(Oc3ccc([N+](=O)[O-])cc3Cl)c(Cl)c2)ccc1Cl` [Example 19, 3,5-Dichloro-N-[4-chloro-3-(2-diethylamino-ethoxy)-phenyl]-4-(2-chloro-4-nitro-phenoxy)-benzenesulfonamide], the Ki in data set [1] worked out at 0.52 µM.

Broadly, the melting point is the temperature, or range, at which the solid turns liquid. The term Ki denotes the equilibrium dissociation constant of an inhibitor or competing ligand from its target. Read a high Ki as a looser hold on the target.
